Legend:
Type in all cases: cell-based, human
breast cancer cell lines [1] = test: AZA-induced immune gene demethylation and re-expression, breast cancer cell lines
Text: (§1) The canonical effects of AZA have traditionally been described as demethylation of promoter regions and subsequent expression of the silenced gene. Many of the pathway changes in response to AZA, such as increased expression of immune genes, may be the result of downstream events elicited by a small number of hubs related to promoter DNA demethylation and associated gene upregulation. We investigated hub networks in our current pan-cancer analyses by first searching, in a genome-wide analysis using the Infinium 450K methylation platform, for genes that have AZA-induced demethylation of cancer-specific, DNA hypermethylated, CpG islands associated with proximal promoter regions. The total number of such demethylated genes in the cell lines from breast, ovarian and colorectal cancers was 162 (FIG. 8A). […]
(§2) All data were analyzed using R: A Language and Environment for Statistical Computing. […] These normalized values were then analyzed utilizing the Gene Set Enrichment Analysis by the Broad Institute and data packages (C5BP, Reactome, KEGG). […] TCGA HumanMethylation27K level 3 data was downloaded, standard deviation of Infinium β-values across all primary cancer samples were calculated, and the top one thousand most variable probes were chosen for hierarchical cluster analysis. […]

[2] = test system: colorectal cancer cell lines; test: AZA-induced immune gene demethylation and re-expression, colorectal cancer cell lines
Text: as §1, §2

[3] = test system: ovarian cancer cell lines; test: AZA-induced immune gene demethylation and re-expression, ovarian cancer cell lines
Text: as §1, §2

[4] = test system: 63 cancer cell lines (26 breast, 14 colorectal, and 23 ovarian); test: GSEA gene sets common to 63 cancer cell lines (breast, colorectal, ovarian) after AZA
Description: (§3) In the context of the above background, we explored further our understanding of the global pathway changes after treatment with low doses of the DNMTi AZA in cell lines from multiple common human cancers. A total of 63 cancer cell lines (26 breast, 14 colorectal, and 23 ovarian) were treated with low dose, 500 nM, AZA for three days. DNA and RNA were isolated at multiple time points following initial drug application and analyzed for genome-wide changes in DNA methylation and gene expression (Agilent 44K Expression Array). […] These gene sets could be broadly divided into four categories including cell cycle control (cell cycle, mitosis, meiosis), DNA replication (DNA replication and packaging, transcription), mRNA splicing and translation, and immune response (FIG. 1C,D; Tables 2 and 3). […] See also FIG. 1A. […] See also FIG. 1B.
63 cell lines (26 breast cancer, 14 colorectal cancer, 23 ovarian cancer) were used in these experiments. Breast cell lines included BT20, BT474, CAMA1, EFM19, MDA453, MDA468, MDA361, MCF7, MDA231, T47D, HCC1500, and HCC1187 obtained from the American Type Tissue Collection; HCC1419, HCC38, EFM192A, HCC1569, HCC1937, HCC1954, MDA175, MDA415, MDA436, SUM149, SUM159, SKBR3, ZR751, and ZR7530 from Dr. Dennis Slamon. All cells were maintained under recommended conditions. Colorectal cell lines were all obtained from the American Type Tissue Collection and were maintained under recommended conditions. These included CACO-2, Colo201, Colo205, Colo320, DLD1, HCT116, HT29, Lovo, RKO, SK-CO1, SNUC-1, SW48, SW480, and SW620. Ovarian cell lines were obtained from the laboratory of Dr. Dennis Slamon and included A2780, CAOV3, DOV13, EFO27, ES2, Hey, HEYC2, Kuramochi, OAW28, OAW42, OV167, OV2008, OV90, OVCA429, OVCA432, OVMANA, OVCAR3, OVCAR5, OVKATE, PEO14, SKOV3, TOV112D, and TykNu; these were maintained under the ATCC recommended conditions.
Cell lines were treated with 500 nM of AZA or carboplatin (Sigma; St. Louis, Mo.) for 72 hours while in log-growth phase, changing the media and drug every 24 hours for AZA treatment. To select an appropriate chemotherapy control, the carboplatin dose that had the similar growth inhibitory effect to 500 nM AZA after 10 days was selected. Cells were harvested at 1, 3, 7, 10, 14, 21, or 28 days following initial application of drug. […]
as §2

breast cancer cell lines [5] = test: GSEA of Agilent 44K expression arrays after low-dose AZA, breast cancer cell lines
Description: as §3, with “1B. […]” for “1B.”
as §2

[6] = test system: A2780 ovarian cancer cells; test: qRT-PCR of AIM genes in A2780 after AZA or carboplatin; conditions: 500 nM for 72 hours, then 7 days recovery without drug
Description: FIG. 9A-9D. AIM genes are induced by TSA but not by chemotherapeutic agents. […] FIG. 9B: Box plots of AIM genes after TSA treatment. FIG. 9C: Box plots of AIM genes in DKO cells compared to the parent HCT116 cell line. The orange lines indicate 2 fold change. FIG. 9D: A2780 ovarian cancer cells were treated with 500 nM AZA or carboplatin for 72 hours, then allowed to recover for 7 days without drug before RNA was isolated. qRT-PCR was performed for IFI27, IL-15, IRF7, and MAGEB2 genes. Blue bars indicate Mock treatment, purple indicate AZA, and orange indicate carboplatin. Fold change is plotted on the Y axis. Each bar represents the average and standard deviation of three biological replicates. […]
After total cellular RNA was extracted using the Trizol method (Life Technologies, Carlsbad, Calif.), RNA concentration was determined using the Nanodrop machine and software (Thermo Fisher Scientific, Rockville, Md.). 1 μg total RNA was used to generate cDNA with the QuantiTect Reverse Transcription Kit (Qiagen, Venlo, Netherlands). Quantitative reverse transcription PCR (q-RT-PCR) of CD274, DDX58, HLA-C, IFI6, IFI27, IL-15, IRF7, IRF9, MAEL, and MAGEB2 mRNA was performed using TaqMan assays (Life Technologies, Carlsbad, Calif.) and the Applied Biosystems 7500 Fast real-time PCR system and software. […]

[7] = test system: colorectal cancer cell lines; test: GSEA of Agilent 44K expression arrays after low-dose AZA, colorectal cancer cell lines
Description: as §3, with “1B. […]” for “1B.”
as §2

lung cancer cell lines = test: GSEA of lung cancer cell lines treated with the same AZA dosing schedule; conditions: 14 lung cancer cell lines
[8] = test system: cell lines from breast, ovarian and colorectal cancers; test: AZA-induced promoter CpG island demethylation and re-expression (Infinium 450K), all three cancer types
Text: The canonical effects of AZA have traditionally been described as demethylation of promoter regions and subsequent expression of the silenced gene. Many of the pathway changes in response to AZA, such as increased expression of immune genes, may be the result of downstream events elicited by a small number of hubs related to promoter DNA demethylation and associated gene upregulation. We investigated hub networks in our current pan-cancer analyses by first searching, in a genome-wide analysis using the Infinium 450K methylation platform, for genes that have AZA-induced demethylation of cancer-specific, DNA hypermethylated, CpG islands associated with proximal promoter regions. The total number of such demethylated genes in the cell lines from breast, ovarian and colorectal cancers was 162 (FIG. 8A). […] The highest percentages of these demethylation and re-expression events were again seen in immune genes; 26%, of the 162 genes were categorized as immune related (FIG. 8B,C). Overall, immune gene demethylation and re-expression was again highest in ovarian cancer cell lines (53.8%) followed by colorectal (42.8%) and breast (30.7%) cancer cell lines (FIG. 8B). Of note, amongst these 162 genes, 8 (4.9%) were also in our AIM gene set (BNIP3, HERC5, ICAM1, IRF7, MX1, MST1R, PSMB8, TCRIG1) with IRF7, a member of the interferon regulatory factor family of transcription factors in particular being notable for being a canonical demethylated and reexpressed gene.
Cell lines were treated with 500 nM of AZA or carboplatin (Sigma; St. Louis, Mo.) for 72 hours while in log-growth phase, changing the media and drug every 24 hours for AZA treatment. To select an appropriate chemotherapy control, the carboplatin dose that had the similar growth inhibitory effect to 500 nM AZA after 10 days was selected. Cells were harvested at 1, 3, 7, 10, 14, 21, or 28 days following initial application of drug. DNA and RNA were obtained using standard protocols. RNA from 63 cell lines was sent for the Agilent 44K Expression Array and DNA from 53 cell lines was sent for the Illumina 450K Methylation Array.
All data were analyzed using R: A Language and Environment for Statistical Computing. Expression normalization of cell line data was performed using the package Limma as previously described. Data was normalized within each tumor type (breast, colorectal, and ovarian). These normalized values were then analyzed utilizing the Gene Set Enrichment Analysis by the Broad Institute and data packages (C5BP, Reactome, KEGG). […] TCGA HumanMethylation27K level 3 data was downloaded, standard deviation of Infinium β-values across all primary cancer samples were calculated, and the top one thousand most variable probes were chosen for hierarchical cluster analysis. […]

[9] = test system: HCC1569, ZR751, COLO201, HT29, A2780 and TYKNU cells; test: qRT-PCR validation of AIM genes in two cell lines from each cancer type; conditions: two cell lines per cancer type
Description: After total cellular RNA was extracted using the Trizol method (Life Technologies, Carlsbad, Calif.), RNA concentration was determined using the Nanodrop machine and software (Thermo Fisher Scientific, Rockville, Md.). 1 μg total RNA was used to generate cDNA with the QuantiTect Reverse Transcription Kit (Qiagen, Venlo, Netherlands). Quantitative reverse transcription PCR (q-RT-PCR) of CD274, DDX58, HLA-C, IFI6, IFI27, IL-15, IRF7, IRF9, MAEL, and MAGEB2 mRNA was performed using TaqMan assays (Life Technologies, Carlsbad, Calif.) and the Applied Biosystems 7500 Fast real-time PCR system and software. Human β-actin mRNA was used as the endogenous control. The ΔΔCT method was used to calculate relative expression levels. All qRT-PCR assays were carried out in triplicate and then repeated with new cDNA synthesis. Minus RT controls (reverse transcriptase negative cDNA synthesis reactions) were performed for at least one sample per plate.

[10] = test system: ovarian cancer cell lines; test: GSEA of Agilent 44K expression arrays after low-dose AZA, ovarian cancer cell lines
Description: as §3, with “1B. […]” for “1B.”
as §2

colon cancer cell lines = test: AIM gene expression in colon cancer cell lines after TSA; conditions: six colon cancer cell lines, 300 nM TSA for 18 hours
Description: FIG. 9A-9D. AIM genes are induced by TSA but not by chemotherapeutic agents. […] FIG. 9B: Box plots of AIM genes after TSA treatment. FIG. 9C: Box plots of AIM genes in DKO cells compared to the parent HCT116 cell line. The orange lines indicate 2 fold change. FIG. 9D: A2780 ovarian cancer cells were treated with 500 nM AZA or carboplatin for 72 hours, then allowed to recover for 7 days without drug before RNA was isolated. qRT-PCR was performed for IFI27, IL-15, IRF7, and MAGEB2 genes. Blue bars indicate Mock treatment, purple indicate AZA, and orange indicate carboplatin. Fold change is plotted on the Y axis. Each bar represents the average and standard deviation of three biological replicates.
It is especially noteworthy that the DKO cell line (haplo-insufficient for DNMT1 and null for DNMT3B), which is shown as a genetic mimic of AZA treatment (FIG. 2B, FIG. 7) induces significant upregulation for most AIM genes (FIG. 9A, C). To determine whether this was specific to DNMT inhibitors, we also treated cells with an HDAC inhibitor (TSA) that has been used extensively in our laboratory. […] This activation appears to be in response to epigenetic agents and not the result of a general cell stress response that could be elicited by chemotherapeutics such as carboplatin.

[11] = 500 nM AZA for three days, NES>2.15, FDR<0.25

Q: Which “immune gene demethylation and re-expression (percent of cell lines)” value (breast cancer cell lines [1]) does the source give for `Nc1ncn([C@@H]2O[C@H](CO)[C@@H](O)[C@H]2O)c(=O)n1` [AZA, 5-azacitidine] here?
A: The value was 30.7%.

Q: And the “immune gene demethylation and re-expression (percent of cell lines)” value [2]?
A: Its value is 42.8%.

Q: What about the “immune gene demethylation and re-expression (percent of cell lines)” value [3] of the same compound?
A: The value was 53.8%.

Q: What about the “immune gene sets showing upregulation by AZA (15/16 gene sets)” value ([4]; 500 nM AZA for three days) of the same compound?
A: The value was 93.7%.

Q: What about the “downregulated GSEA gene sets common between the three cancer types” value ([4]; 500 nM AZA for three days, NES<-2.15, FDR<0.25) of the same compound?
A: The value was 52 gene sets.

Q: And the “upregulated GSEA gene sets common between the three cancer types” value [4, 11]?
A: The value was 80 gene sets.

Q: What about the “enrichment for immunomodulatory pathways in all three cancers” value ([4]; range over breast, colorectal, ovarian) of the same compound?
A: The value was 14.4-31.3%.

Q: What about the “Overall immune pathway upregulation (percent of upregulated GSEA gene sets that are immune-related)” value (breast cancer cell lines [5]; [11]) of the same compound?
A: Its value is 16.9%.

Q: What about the “upregulation of cancer testis antigens gene set (percent of cell lines)” value (“upregulation … (percent of cell lines)” for short) (breast cancer cell lines [5]; GSEA NES>2.15, FDR<0.25) of the same compound?
A: Its value is 19.2%.

Q: What about the “expression of AIM genes IFI27, IRF7, IL15, MAGEB2 (qRT-PCR)” value [6] of the same compound?
A: The value was “increased”.

Q: What about the “Overall immune pathway upregulation (percent of upregulated GSEA gene sets that are immune-related)” value [7, 11] of the same compound?
A: Its value is 14.4%.

Q: And the “upregulation … (percent of cell lines)” value ([7]; GSEA NES>2.15, FDR<0.25)?
A: The value was 64.3%.

Q: What about the “gene sets common to breast, colon, and ovarian cell lines also upregulated in the lung cancer cell lines (76/80)” value (lung cancer cell lines) of the same compound?
A: The value was 95%.

Q: And the “significantly upregulated pathways that were immune related” value (lung cancer cell lines)?
A: The value was 23.3%.

Q: What about the “share of the 162 demethylated/re-expressed genes categorized as immune related” value [8] of the same compound?
A: The value was 26%.

Q: And the “subset of the 162 genes showing demethylation and re-expression in all three cancer types” value [8]?
A: The value was 4.9%.

Q: And the “number of the 162 demethylated/re-expressed genes also in AIM gene set” value ([8]; 8 (4.9%))?
A: Its value is 8 genes.

Q: What about the “total number of demethylated (and re-expressed) genes” value ([8]; basal β ≥0.5, Δβ(AZA-Mock)≤-0.25, >2-fold expression) of the same compound?
A: Its value is 162 genes.

Q: And the “qRT-PCR validation of AZA-induced re-expression of selected AIM (interferon response) genes” value [9]?
A: The value was “Each chosen gene validated”.

Q: And the “qRT-PCR validation of upregulation of selected antigen presentation pathway genes” value [9]?
A: The value was “validated”.

Q: And the “Overall immune pathway upregulation (percent of upregulated GSEA gene sets that are immune-related)” value ([10]; ovarian cancers, 500 nM AZA for three days, NES>2.15, FDR<0.25)?
A: Its value is 31.3%.

Q: And the “upregulation … (percent of cell lines)” value ([10]; ovarian, GSEA NES>2.15, FDR<0.25)?
A: Its value is 39.1%.

Q: For `CC(/C=C/C(=O)NO)=C\[C@@H](C)C(=O)c1ccc(N(C)C)cc1` [TSA], which “regulation of AIM genes” value (colon cancer cell lines) is on record?
A: Its value is “regulates subsets of AIM genes but not as uniformly or robustly as DKO cells or AZA treated cells”.

Q: Which “expression of AIM genes IFI27, IRF7, IL15, MAGEB2 (qRT-PCR)” value [6] does the source give for `N.N.O=C([O-])C1(C(=O)[O-])CCC1.[Pt+2]` [carboplatin] here?
A: Its value is “does not lead to overexpression”.

— US10619210B2, “Predicting response to epigenetic drug therapy” (THE JOHNS HOPKINS UNIVERSITY, priority 2014, dated 2020)
